Laboratory results as given in patent publication US20250134889A1, “TARGETING IRE1 KINASE AND FMRP FOR PROPHYLAXIS, MANAGEMENT AND TREATMENT OF ATHEROSCLEROSIS” (CEDARS-SINAI MEDICAL CENTER, priority 2022, published 2025).

Columns and labels:
[1] = tested on: IRE1 kinase activity; assay: ER stress-induced IRE1 and FMRP phosphorylation in transfected MEFs (western blot); format: cell-based, mouse; details: AMG-18 25 μM 1 hour pre-treatment, TG 600 nM 4 hours
Protocol: FIGS. 1A-1K depict FMRP is a new inositol-requiring enzyme-1 (IRE1) kinase substrate. A representative blot is shown from at least n=3 independent experiments. Data are mean±SEM. Unpaired 1-test with Welch's correction or paired 1-test. * P≤0.05, ** P≤0.01, *** P≤0.001. • 1A. STING analysis of published IRE1 interactome proteins in relation to FMRP (Acosta-Alvear et al., 2018). • 1B. HEK293T cells were co-transfected with IRE1 and FMRP plasmids and stimulated with TG (600 nM) or TM (1 mg/ml) for 2 hours. Protein lysates were immunoprecipitated (IP) with anti-IRE1 or IgG (control) antibodies and analyzed by Western blotting using specific antibodies for FMRP and IRE1 (n=3). • 1C. RAW 264.7 mouse macrophages were treated with either oxLDL (50 μg/ml) or TG (300 nM) for 6 hours. Protein lysates were treated with λ Phosphatase (PPase) for 30 minutes and analyzed by western blotting using specific antibodies for pFMRP, FMRP, pIRE1, IRE1 and β-Actin. pFMRP/FMRP fold induction is depicted above the blots (n=6). • 1D. […] Protein lysates were analyzed by western blotting using specific antibodies for pFMRP, FMRP, pIRE1, IRE1 and β-Actin. pFMRP/FMRP-fold induction is depicted above the blots (n=5). • 1E. […] Protein lysates were analyzed by western blotting using specific antibodies for pFMRP, FMRP, pIRE1, IRE1 and β-Actin. pFMRP/FMRP fold induction is depicted above the blots (n=4). • 1F. […]

[2] = molecular target: T1, human IRE1-kinase/RNase domains (amino acids 468-977) (Homo sapiens, UniProt O75460); assay: Kinase reaction with purified recombinant IRE1 and FMRP; format: biochemical; details: purified proteins, ATP-γ-S
T1 construct: recombinant human IRE1-kinase/RNase domains (amino acids 468-977); purchased Biotech (so in the source) E31-11G
T1 sequence (O75460 468-977): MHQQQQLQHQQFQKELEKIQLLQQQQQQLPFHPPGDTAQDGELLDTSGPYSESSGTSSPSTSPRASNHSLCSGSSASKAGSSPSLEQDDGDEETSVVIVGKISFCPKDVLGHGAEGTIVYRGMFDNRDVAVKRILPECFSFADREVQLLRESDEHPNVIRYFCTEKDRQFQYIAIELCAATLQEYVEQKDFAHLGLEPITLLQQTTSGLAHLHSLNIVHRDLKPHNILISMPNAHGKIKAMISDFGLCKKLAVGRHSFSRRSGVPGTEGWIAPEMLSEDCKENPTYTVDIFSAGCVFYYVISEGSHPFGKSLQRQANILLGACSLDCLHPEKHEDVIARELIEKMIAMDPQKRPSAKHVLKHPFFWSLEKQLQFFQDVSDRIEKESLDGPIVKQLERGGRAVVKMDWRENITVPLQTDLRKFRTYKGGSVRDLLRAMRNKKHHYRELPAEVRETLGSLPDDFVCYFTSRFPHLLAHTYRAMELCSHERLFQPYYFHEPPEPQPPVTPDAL

SMILES: Cc1ccc2c(NS(=O)(=O)c3ccccc3Cl)cccc2c1Oc1ncccc1-c1ccnc(N[C@H]2CCCNC2)n1 [AMG-18]
- FMRP phosphorylation (pFMRP/FMRP) [1]: clearly reducing
- IRE1 phosphorylation [1]: prevented
- FMRP phosphorylation in kinase reaction [2]: AMG-18-sensitive
- IRE1 phosphorylation in kinase reaction [2]: AMG-18-sensitive
